From ChEMBL document CHEMBL3877246, “Antileishmanial effect of new indeno-1,5-naphthyridines, selective inhibitors of Leishmania infantum type IB DNA topoisomerase” (Eur J Med Chem, 2016)
Activity calls are given as the source filed them. The calls are words filed in the database; no cut-off is given here.

What was measured:
Leishmania infantum [1] = assay: Antileishmanial activity against Leishmania infantum BCN150 promastigotes harboring iRFP gene by infrared imaging method; assay type: functional
Leishmania infantum [2] = assay: Antileishmanial activity against Leishmania infantum amastigotes harboring iRFP gene infected BALB/c mouse splenocytes after 48 hrs by infrared imaging method; assay type: functional
[3] = Cytotoxicity against BALB/c mouse splenocytes assessed as cell viability after 48 hrs by alamar blue assay; assay type: toxicity, Splenocyte
[4] = Selectivity index, ratio of CC50 for BALB/c mouse splenocytes to IC50 for Leishmania infantum amastigotes harboring iRFP gene infected BALB/c mouse splenocytes; assay type: functional
Leishmania infantum [5] = assay: (§1) Inhibition of Leishmania infantum recombinant topoisomerase 1B expressed in topoisomerase 1B- deficient Saccharomyces cerevisiae EKY3 assessed as decrease in relaxation of negatively supercoiled pSK DNA at 100 uM preincubated for 1 min followed by supercoiled pSK DNA addition measured after 5 mins by aggarose gel electrophoresis
Leishmania infantum [6] = assay: as §1, with “5 mins” for “1 min”
Leishmania infantum [7] = assay: as §1, with “15 mins” for “1 min”
[8] = as §1, with “DNA” for “DNA at 100 uM”, “15 mins” for “1 min”
Homo sapiens [9] = organism: Homo sapiens; assay: as §1, with “human” for “Leishmania infantum”
Homo sapiens [10] = organism: Homo sapiens; assay: as §1, with “human” for “Leishmania infantum”, “5 mins” for “1 min”
Homo sapiens [11] = organism: Homo sapiens; assay: as §1, with “human” for “Leishmania infantum”, “15 mins” for “1 min”
[12] = as §1, with “human” for “Leishmania infantum”, “DNA” for “DNA at 100 uM”, “15 mins” for “1 min”

Structure (SMILES)	IC50 (Leishmania infantum [1]) [µM]	IC50 (Leishmania infantum [2]) [µM]	CC50 at 48 h [3] [µM]	Ratio CC50/IC50 [4]	inhibition (Leishmania infantum [5])	inhibition (Leishmania infantum [6])	inhibition (Leishmania infantum [7])	IC50 [8] [µM]	inhibition (Homo sapiens [9])	inhibition (Homo sapiens [10])	inhibition (Homo sapiens [11])	IC50 [12] [µM]
c1ccc2c(c1)Cc1c(-c3ccc4ccccc4c3)nc3cccnc3c1-2	34.6	11.9	75.8	6.4	Active	Active	Active	28.1	Active	Active	Active	83.4
Fc1ccc(-c2nc3cccnc3c3c2Cc2ccccc2-3)cc1	34.9	0.74	50.5	68.2	Active	Active	Active	14.7	Active	Active		87.7
Fc1ccc([C@H]2Nc3cccnc3[C@H]3c4ccccc4C[C@H]32)c(F)c1 (relative stereo)	3.7	0.67	32.1	47.9	Active	Active		41.8				
Fc1ccc(-c2nc3cccnc3c3c2Cc2ccccc2-3)c(F)c1		6.07	76.9	12.7								
COc1cccc([C@H]2Nc3cccnc3[C@H]3c4ccccc4C[C@H]32)c1 (relative stereo)	5.4	0.54	35.8	66.3	Active	Active		21.8				
CSc1ccc(-c2nc3cccnc3c3c2Cc2ccccc2-3)cc1	75.1	58.1	80.9	1.39								
Cc1ccc(-c2nc3cccnc3c3c2Cc2ccccc2-3)cc1	69.4	58.3	68.2	1.17								
Fc1cccc([C@H]2Nc3cccnc3[C@H]3c4ccccc4C[C@H]32)c1 (relative stereo)	89.9	94.7	85.3	0.9								
c1ccc2c(c1)C[C@@H]1[C@H]2c2ncccc2N[C@@H]1c1ccncc1 (relative stereo)	82.5	65.2	94.6	1.45								
Fc1ccc(-c2nc3cccnc3c3c2Cc2ccccc2-3)cc1F	86.1	78.2	74.2	0.95								
C[C@H]1Nc2cccnc2[C@H]2c3ccccc3C[C@H]21 (relative stereo)	> 100	89.4	> 100	>1.12								
CCOC(=O)[C@H]1Nc2cccnc2[C@H]2c3ccccc3C[C@H]21 (relative stereo)	90.8	78.5	> 100	>1.27								
c1ccc([C@H]2Nc3cccnc3[C@H]3c4ccccc4C[C@H]32)cc1	> 100	65.1	94.3	1.45		Active	Active	45.2	Active	Active		46.5
O=[N+]([O-])c1ccc([C@H]2Nc3cccnc3[C@H]3c4ccccc4C[C@H]32)cc1 (relative stereo)	> 100	91.3	> 100	>1.09		Active	Active	> 100	Active	Active		10.7
C[C@@H]1[C@H](O)[C@@H](C)/C=C/C=C/C=C/C=C/C=C/C=C/C=C/[C@H](O[C@@H]2O[C@H](C)[C@@H](O)[C@H](N)[C@@H]2O)C[C@@H]2O[C@](O)(C[C@@H](O)C[C@@H](O)[C@H](O)CC[C@@H](O)C[C@@H](O)CC(=O)O[C@H]1C)C[C@H](O)[C@H]2C(=O)O [AMPHOTERICIN B]	0.77	0.32	> 20	>62.5								
COc1ccc(-c2nc3cccnc3c3c2Cc2ccccc2-3)cc1		5.8	116	20.1	Active	Active	Active	14.1				
FC(F)(F)c1ccc(-c2nc3cccnc3c3c2Cc2ccccc2-3)cc1	84.7	3.35	126	37.6	Active	Active	Active	23.6	Active	Active	Active	27.4
O=[N+]([O-])c1ccc(-c2nc3cccnc3c3c2Cc2ccccc2-3)cc1	> 100	68.3	88.1	1.29	Active	Active	Active	42.3	Active	Active	Active	31.6
FC(F)(F)c1ccc([C@H]2Nc3cccnc3[C@H]3c4ccccc4C[C@H]32)cc1 (relative stereo)	6.1		4.6			Active	Active	60.6		Active	Active	22.4
Fc1ccc([C@H]2Nc3cccnc3[C@H]3c4ccccc4C[C@H]32)cc1 (relative stereo)	9.8	2.97	57.9	19.5		Active	Active	49				
Fc1ccc([C@H]2Nc3cccnc3[C@H]3c4ccccc4C[C@H]32)cc1F (relative stereo)	86.8	76.2	77.5	1.02					Active	Active		24.4
c1ccc2c(c1)Cc1c(-c3ccncc3)nc3cccnc3c1-2	33.9		19.9									
CCOC(=O)c1nc2cccnc2c2c1Cc1ccccc1-2	33.3	25.1	59.4	2.4								
COc1cccc(-c2nc3cccnc3c3c2Cc2ccccc2-3)c1	> 100	93.3	> 100	>1.07	Active	Active	Active	29.5				
CC[C@@]1(O)C(=O)OCc2c1cc1n(c2=O)Cc2cc3ccccc3nc2-1 [CAMPTOTHECIN]	1.12	0.03	0.62	20.7	Active				Active			
c1ccc(-c2nc3cccnc3c3c2Cc2ccccc2-3)cc1	70.1	63.3	90.2	1.43								
